Measurements taken from patent publication US20170247326A1, “Substituted Pyrrolidine Carboxamide Compounds” (EPIZYME, INC., priority 2014, published 2017).

Biological target: T1, SMYD2 (Homo sapiens, UniProt Q9NRG4)
T1 construct: Full length SMYD2 (NP_064582.2) was cloned; His6 (N, cleaved yes); FLAG (N); made in house; host or cells: Sf9 insect cells
Experiment: SMYD2 biochemical assay (3H-SAM, biotinylated peptide substrate, Flashplate)
Details: Table 1; average of n = 1 to n = 50; read-out: SMYD2 Biochem IC50
Description: S-adenosylmethionine (SAM), S-adenosylhomocysteine (SAH), bicine, Tween20, dimethylsulfoxide (DMSO), bovine skin gelatin (BSG), and Tris(2-carboxyethyl)phosphine hydrochloride (TCEP) were purchased from Sigma-Aldrich at the highest level of purity possible. ^3H-SAM was purchase from American Radiolabeled Chemicals with a specific activity of 80 Ci/mmol. 384-well streptavidin Flashplates were purchased from PerkinElmer.
Peptide was synthesized with a N-terminal linker-affinity tag motif and a C-terminal amide cap by 21st Century Biochemicals. The peptide was high high-performance liquid chromatography (HPLC) purified to greater than 95% purity and confirmed by liquid chromatography mass spectrometry (LC-MS). The sequence was […](K-Biot)-amide. (SEQ ID NO: 3)
Full length SMYD2 (NP_064582.2) was cloned into a pFastbac-Htb-lic vector with an N-terminal His6 tag and FLAG tag, preceded by a TEV protease cleavage site. The protein was expressed in Sf9 insect cells. Cells were resuspended in lysis buffer (25 mM HEPES-NaOH, pH 7.5, 200 mM NaCl, 5% glycerol, and 5 mM […] and lysed by sonication. The protein was purified by Ni-NTA (Qiagen), followed by TEV cleavage to remove the His6 tag, subtractive Ni-NTA (Qiagen), and gel filtration chromatography using an S200 column (GE Healthcare). Purified protein was stored in 20 mM Tris-HCl, pH 8.0, 100 mM NaCl, and 1 mM TCEP.
General Procedure for SMYD2 Enzyme Assays on Peptide Substrates
The assays were all performed in a buffer consisting of 20 mM Bicine (pH=7.6), 1 mM TCEP, 0.005% Bovine Skin Gelatin, and 0.002% Tween20, prepared on the day of use. Compounds in 100% DMSO (1 ul) were spotted into a polypropylene 384-well V-bottom plates (Greiner) using a Platemate Plus outfitted with a 384-channel head (Thermo Scientific). DMSO (1 ul) was added to Columns 11, 12, 23, 24, rows A-H for the maximum signal control and 1 ul of SAH, a known product and inhibitor of SMYD2, was added to columns 11, 12, 23, 24, rows I-P for the minimum signal control. A cocktail (40 ul) containing the SMYD2 enzyme was added by Multidrop Combi (Thermo-Fisher). The compounds were allowed to incubate with SMYD2 for 30 min at room temperature, then a cocktail (10 ul) containing ^3H-SAM and peptide was added to initiate the reaction (final volume=51 ul). The final concentrations of the components were as follows: SMYD2 was 1.5 nM, ^3H-SAM was 10 nM, and peptide was 60 nM, SAH in the minimum signal control wells was 1000 uM, and the DMSO concentration was 2%. The assays were stopped by the addition of non-radioactive SAM (10 ul) to a final concentration of 600 uM, which dilutes the ^3H-SAM to a level where its incorporation into the peptide substrate is no longer detectable. 50 ul of the reaction in the 384-well polypropylene plate was then transferred to a 384-well Flashplate and the biotinylated peptides were allowed to bind to the streptavidin surface for at least 1 hour before being washed three times with 0.1% Tween20 in a Biotek ELx405 plate washer. The plates were then read in a PerkinElmer TopCount plate reader to measure the quantity of ^3H-labeled peptide bound to the Flashplate surface, measured as disintegrations per minute (dpm) or alternatively, referred to as counts per minute (cpm).
Where dpm=disintegrations per minute, cmpd=signal in assay well, and min and max are the respective minimum and maximum signal controls.
Where top and bottom are the normally allowed to float, but may be fixed at 100 or 0 respectively in a 3-parameter fit. The Hill Coefficient normally allowed to float but may also be fixed at 1 in a 3-parameter fit. I is the compound concentration.
SMYD2 biochemical assay data for representative Compounds of the Disclosure are presented in Tables 1, 3, and 4 in the column titled “SMYD2 Bicohem IC50 (μM).”

T1 sequence (Q9NRG4 whole entry): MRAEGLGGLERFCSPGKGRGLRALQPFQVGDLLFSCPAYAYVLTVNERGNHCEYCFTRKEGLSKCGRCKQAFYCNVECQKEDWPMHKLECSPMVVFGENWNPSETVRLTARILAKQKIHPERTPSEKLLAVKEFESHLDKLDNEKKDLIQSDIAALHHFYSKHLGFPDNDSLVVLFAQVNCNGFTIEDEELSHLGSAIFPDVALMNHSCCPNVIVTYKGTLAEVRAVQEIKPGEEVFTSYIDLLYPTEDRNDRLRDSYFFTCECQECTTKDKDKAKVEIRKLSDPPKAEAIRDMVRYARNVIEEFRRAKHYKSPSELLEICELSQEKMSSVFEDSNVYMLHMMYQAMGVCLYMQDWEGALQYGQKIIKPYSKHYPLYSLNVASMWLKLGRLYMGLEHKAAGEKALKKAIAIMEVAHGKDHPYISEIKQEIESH

IC50 [µM]	SMILES
> 50	C[C@H]1CN(C2CC2)C[C@@H]1NC(=O)c1ccc2[nH]c(=O)oc2c1 (racemic) [compound 13, (±)-trans-N-(1-cyclopropyl-4-methylpyrrolidin-3-yl)-2-oxo-2,3-dihydrobenzo[d]oxazole-6-carboxamide]
> 50	C[C@H]1CN(C2CC2)C[C@H]1NC(=O)c1ccc2c(c1)CC(=O)N2 (racemic) [Cpd. No. 6, (±)-cis-N-(1-cyclopropyl-4-methylpyrrolidin-3-yl)-2-oxoindoline-5-carboxamide]

Same assay, conditions: Table 3; average of n = 1 to n = 50; read-out: SMYD2 Biochem IC50

IC50 [µM]	SMILES
> 50	CC(C)N1C[C@@H](C)[C@H](NC(=O)c2ccc(C3CC3)nn2)C1 (racemic) [compound 108, (±)-trans-6-cyclopropyl-N-[4-methyl-1-(propan-2-yl)pyrrolidin-3-yl]pyridazine-3-carboxamide]
0.0917	C[C@@H]1CN(Cc2ccc(OCc3ccccc3)cc2)C[C@@H]1NC(=O)c1cc(C2CC2)cnn1 (racemic) [compound 104, (±)-cis-N-(1-{[4-(benzyloxy)phenyl]methyl}-4-methylpyrrolidin-3-yl)-5-cyclopropylpyridazine-3-carboxamide]
12	CC(C)N1C[C@@H](C)[C@H](NC(=O)c2cc(C3CC3)cnn2)C1 (racemic) [compound 111, (±)-trans-5-cyclopropyl-N-[4-methyl-1-(propan-2-yl)pyrrolidin-3-yl]pyridazine-3-carboxamide]
> 50	CC(C)N1C[C@H](C)[C@H](NC(=O)c2ccc(C3CC3)nn2)C1 (racemic) [compound 109, (±)-cis-6-cyclopropyl-N-[4-methyl-1-(propan-2-yl)pyrrolidin-3-yl]pyridazine-3-carboxamide]
> 50	CN(C)C1CCC(NC(=O)c2cn(C3CC3)nn2)C1 (centres unmarked) [compound 122, 1-cyclopropyl-N-[3-(dimethylamino)cyclopentyl]-1H-1,2,3-triazole-4-carboxamide]
> 50	CC(C)c1coc(C(=O)N[C@@H]2CN(C(C)C)C[C@@H]2C)n1 (racemic) [compound 102, (±)-cis-N-[4-methyl-1-(propan-2-yl)pyrrolidin-3-yl]-4-(propan-2-yl)-1,3-oxazole-2-carboxamide]
2.7	C[C@H]1CN(Cc2ccc(OCc3ccccc3)cc2)C[C@@H]1NC(=O)c1cc(C2CC2)cnn1 (racemic) [compound 107, (±)-trans-N-(1-{[4-(benzyloxy)phenyl]methyl}-4-methylpyrrolidin-3-yl)-5-cyclopropylpyridazine-3-carboxamide]
> 50	CC(C)N1C[C@H](C)[C@H](NC(=O)c2cncc(C3CC3)c2)C1 (racemic) [compound 90, (±)-cis-5-cyclopropyl-N-[4-methyl-1-(propan-2-yl)pyrrolidin-3-yl]pyridine-3-carboxamide]
19.6	CC(C)N1C[C@H](C)[C@H](NC(=O)c2csnc2C2CC2)C1 (racemic) [compound 92, (±)-cis-3-cyclopropyl-N-[4-methyl-1-(propan-2-yl)pyrrolidin-3-yl]-1,2-thiazole-4-carboxamide]
> 50	CC(C)N1C[C@H](C)[C@H](NC(=O)c2cc(C3CCC3)cnn2)C1 (racemic) [compound 94, (±)-cis-5-cyclobutyl-N-[4-methyl-1-(propan-2-yl)pyrrolidin-3-yl]pyridazine-3-carboxamide]

More lines, now with the values behind:

SMILES	IC50 [µM]
CC(C)N1C[C@@H](C)[C@H](NC(=O)c2ccc(C3CC3)c(=O)[nH]2)C1 (racemic) [compound 57, (±)-trans-5-cyclopropyl-N-[4-methyl-1-(propan-2-yl)pyrrolidin-3-yl]-6-oxo-1,6-dihydropyridine-2-carboxamide]	> 50
CC(C)N1C[C@H](C)[C@H](NC(=O)c2cncc(C3CC3)n2)C1 (racemic) [compound 42, (±)-cis-6-cyclopropyl-N-[4-methyl-1-(propan-2-yl)pyrrolidin-3-yl]pyrazine-2-carboxamide]	> 50
CC(C)N1C[C@@H](C)[C@H](NC(=O)c2ccc3c(c2)OCC(=O)N3)C1 (racemic) [compound 28, (±)-trans-N-[4-methyl-1-(propan-2-yl)pyrrolidin-3-yl]-3-oxo-3,4-dihydro-2H-1,4-benzoxazine-7-carboxamide]	> 50
CC(C)N1C[C@@H](C)[C@H](NC(=O)c2ncc(C3CC3)o2)C1 (racemic) [compound 73, (±)-trans-5-cyclopropyl-N-[4-methyl-1-(propan-2-yl)pyrrolidin-3-yl]-1,3-oxazole-2-carboxamide]	> 50
CC(C)N1C[C@H](C)[C@H](NC(=O)c2ccc3c(c2)NC(=O)CO3)C1 (single isomer, unassigned) [compound 32, (+)-cis-N-[4-methyl-1-(propan-2-yl)pyrrolidin-3-yl]-3-oxo-3,4-dihydro-2H-1,4-benzoxazine-6-carboxamide]	> 50
CC(C)N1C[C@H](C)[C@H](NC(=O)c2cc(C3CC3)[nH]n2)C1 (racemic) [compound 61, (±)-cis-5-cyclopropyl-N-[4-methyl-1-(propan-2-yl)pyrrolidin-3-yl]-1H-pyrazole-3-carboxamide]	> 50
CC(C)N1C[C@@H](C)[C@H](NC(=O)c2ncc(C3CC3)[nH]2)C1 (racemic) [compound 74, (±)-trans-5-cyclopropyl-N-[4-methyl-1-(propan-2-yl)pyrrolidin-3-yl]-1H-imidazole-2-carboxamide]	24.3
CC(C)N1C[C@@H](C)[C@H](NC(=O)c2cc(C3CC3)ncn2)C1 (racemic) [compound 68, (±)-trans-6-cyclopropyl-N-[4-methyl-1-(propan-2-yl)pyrrolidin-3-yl]pyrimidine-4-carboxamide]	> 50
CC(C)N1C[C@@H](C)[C@H](NC(=O)CCN2CCCC2)C1 (racemic) [compound 55, (±)-trans-N-[4-methyl-1-(propan-2-yl)pyrrolidin-3-yl]-3-(pyrrolidin-1-yl)propanamide]	> 50
CC(C)N1C[C@H](C)[C@H](NC(=O)c2cnnc(C3CC3)c2)C1 (racemic) [compound 64, (±)-cis-6-cyclopropyl-N-[4-methyl-1-(propan-2-yl)pyrrolidin-3-yl]pyridazine-4-carboxamide]	> 50
CC(C)N1C[C@H](C)[C@H](NC(=O)c2cn(C(C)C)nn2)C1 (racemic) [compound 25, (±)-cis-N-[4-methyl-1-(propan-2-yl)pyrrolidin-3-yl]-1-(propan-2-yl)-1H-1,2,3-triazole-4-carboxamide]	6.34
CC(C)N1C[C@@H](C)[C@@H](NC(=O)c2cnn(C(C)C)c2)C1 (racemic) [compound 46, (±)-cis-N-[4-methyl-1-(propan-2-yl)pyrrolidin-3-yl]-1-(propan-2-yl)-1H-pyrazole-4-carboxamide]	> 50

Same assay, conditions: Table 4; average of n = 1 to n = 50; read-out: SMYD2 Biochem IC50

IC50 [µM]	SMILES
0.77	CC(C)N1C[C@H](CO)[C@H](NC(=O)c2cc(C3CC3)cnn2)C1 (racemic) [compound 129, rac-5-cyclopropyl-N-((3R,4R)-4-(hydroxymethyl)-1-isopropylpyrrolidin-3-yl)pyridazine-3-carboxamide]
> 50	C[C@H]1CN(S(=O)(=O)CCCN)C[C@H]1NC(=O)c1cc(C2CC2)cnn1 (racemic) [compound 126, rac-N-((3R,4R)-1-((3-aminopropyl)sulfonyl)-4-methylpyrrolidin-3-yl)-5-cyclopropylpyridazine-3-carboxamide]
